Test results from patent publication US20200237742A1, “Serdexmethylphenidate Conjugates, Compositions And Methods Of Use Thereof” (priority 2018, published 2020).
Structures can show the parent of a compound that is named as a salt.

Assays:
[1] = system: recreational stimulant abusers; assay: Intravenous study, treatment-emergent adverse events; conditions: SDX Cl 30 mg (N = 31), d-MPH HCl 15 mg (N = 30)
Protocol: (§1) A study was conducted in humans to assess the intravenous abuse potential of serdexmethylphenidate relative to unconjugated d-methylphenidate and placebo in recreational stimulant abusers. This was a Phase 1, randomized, double-blind study in which serdexmethylphenidate and d-methylphenidate were administered intravenously in recreational stimulant users with a history of non-oral abuse. In Part A of the study, subjects (Cohort 1) participated in a dose-escalation phase to determine the optimal dose of intravenous d-methylphenidate based on tolerability and abuse-related pharmacodynamic assessments. […] The doses of serdexmethylphenidate and d-methylphenidate are equivalent with respect to molar amount of d-methylphenidate. FDA-recommended abuse potential measures and blood samples were collected at different times after dosing. Safety assessments were performed throughout the study.

[2] = system: healthy, nondependent, recreational stimulant users with intranasal insufflation experience; assay: Intranasal abuse potential study, VAS pharmacodynamic assessments
From the text: “Ease of Insufflation” VAS is the measure that assesses the difficulty of snorting the study drugs. Subjects will respond to the statement “Snorting this drug was:” The question will be scored using a 0-100 points unipolar VAS anchored on the left with “Very Easy” (score of 0) and anchored on the right with “Very Difficult” (score of 100).
The study consisted of a Screening Period, an in-clinic Drug Discrimination Phase, a Treatment Phase, and a Follow-Up Visit.
Subjects who successfully completed the Screening Period returned to the clinic to complete the Drug Discrimination Phase. […] Subjects who successfully completed the Drug Discrimination Phase remained as inpatients to enter the Treatment Phase. The Drug Discrimination Phase was a double-blind, intranasal, single-dose, 2-treatment, 2-period, 2-sequence, randomized, crossover design.
All subjects were required to fast for at least 8 hours prior to each dose of study drug until approximately 4 hours after each dose. Abuse potential measures and pharmacokinetic samples were collected at different times after the administration of study drug. Subjects who successfully completed the Drug Discrimination Phase and who qualified for the Treatment Phase remained as inpatients to enter the Treatment Phase.
The placebo dose consisted of 80 mg of microcrystalline cellulose to create the same volume.
On dosing days in the Treatment Phase, blood samples were collected for the measurement of the plasma concentrations of SDX, d-methylphenidate (d-MPH), 1-methylphenidate (1-MPH) and ritalinic acid at predose and at 0.25, 0.5, 0.75, 1, 1.5, 2, 3, 4, 5, 6, 7, 8, 9, 10, 12, 16, 24, 36, and 48 hours ±5 minutes after each dose of study drug. […] All VAS pharmacodynamic assessments except Take Drug Again and Overall Drug Liking were performed at 0.25, 0.5, 0.75, 1, 1.5, 2, 3, 4, 5, 6, 7, 8, 10, 12, 24 hours ±5 minutes postdose. In addition, predose assessments of Feeling High, and Drowsiness/Alertness were collected. The Take Drug Again and Overall Drug Liking VAS assessments were performed at 12 and 24 hours ±5 minutes postdose. Ease of Nasal Insufflation scores were completed within 5 minutes after the completion of each intranasal drug administration during the Treatment Phase.

[3] = Intravenous pharmacokinetic study (KP415.A03) in recreational stimulant users; conditions: human, in vivo, iv
Protocol: as §1

[4] = 12 hours, SDX Cl 80 mg, d-MPH HCl 40 mg
[5] = 24 hours, SDX Cl 80 mg, d-MPH HCl 40 mg

| SMILES | TEAE: Change in sustained attention [1] | TEAE: Dry mouth [1] | TEAE: Energy increased [1] | TEAE: Euphoric mood [1] | TEAE: Feeling abnormal [1] | TEAE: Feeling hot [1] | TEAE: Feeling jittery [1] | TEAE: Feeling of relaxation [1] | TEAE: Headache [1] | TEAE: Heart rate increased [1] | TEAE: Hyperhidrosis (sweaty hands) [1] | TEAE: Hypervigilance [1] | TEAE: Nausea [1] | TEAE: Palpitations [1] | TEAE: Paraesthesia (tingling) [1] | TEAE: Sinus tachycardia [1] | TEAE: Somnolence [1] | TEAE: Tachycardia [1] | Median Overall Drug Liking [2, 4] | Median Take Drug Again [2, 4] | further results |
| --- | --- | --- | --- | --- | --- | --- | --- | --- | --- | --- | --- | --- | --- | --- | --- | --- | --- | --- | --- | --- | --- |
| COC(=O)[C@H](c1ccccc1)[C@H]1CCCCN1 [d-methylphenidate hydrochloride, d-threo-methylphenidate hydrochloride] | 2 (6.7) n (%) | 6 (20.0) n (%) | 1 (3.3) n (%) | 17 (56.7) n (%) | 2 (6.7) n (%) | 6 (20.0) n (%) | 2 (6.7) n (%) | 1 (3.3) n (%) | 1 (3.3) n (%) | 5 (16.7) n (%) | 4 (13.3) n (%) | 10 (33.3) n (%) | 3 (10.0) n (%) | 2 (6.7) n (%) | 2 (6.7) n (%) | 4 (13.3) n (%) | 4 (13.3) n (%) | 4 (13.3) n (%) | 87 | 91 | Median Overall Drug Liking [2, 5]: 82; Median Take Drug Again [2, 5]: 94; Mean Difference Overall Drug Liking, B vs A ([2]; 24 hours, d-MPH HCl 40 mg vs SDX Cl 80 mg): statistically higher |
| COC(=O)[C@H](c1ccccc1)[C@H]1CCCCN1C(=O)OC[n+]1cccc(C(=O)N[C@@H](CO)C(=O)O)c1.[Cl-] [serdexmethylphenidate chloride] | 0 (0.0) n (%) | 0 (0.0) n (%) | 2 (6.5) n (%) | 4 (12.9) n (%) | 1 (3.2) n (%) | 2 (6.5) n (%) | 0 (0.0) n (%) | 0 (0.0) n (%) | 1 (3.2) n (%) | 0 (0.0) n (%) | 1 (3.2) n (%) | 4 (12.9) n (%) | 0 (0.0) n (%) | 0 (0.0) n (%) | 0 (0.0) n (%) | 0 (0.0) n (%) | 1 (3.2) n (%) | 0 (0.0) n (%) | 58 | 51 | Mean Overall Drug Liking [2, 5]: 59.0; Median Overall Drug Liking [2, 5]: 55; Median Take Drug Again [2, 5]: 50; AUCinf [3]: 31.0; AUCinf, GLSM [3]: 28.9 ng·h/mL; AUCinf, GLSM Ratio A/B [3]: 12.2%; AUClast [3]: 25.7; AUClast, GLSM [3]: 23.8 ng·h/mL; AUClast, GLSM Ratio A/B [3]: 10.2%; Cmax [3]: 12.9 ng/mL; Cmax, GLSM [3]: 12.1 ng/mL; Cmax, GLSM Ratio A/B [3]: 20.8%; T1/2 [3]: 8.23 h; Tmax [3]: 5.93 min |
